Article PMC7004070 (Chemmedchem, 2019)
Entries after “also recorded” stand apart in the source; their conditions may differ.

Assays:
[1] = system: HepG2 cells; experiment: WST-1 assay in HepG2 cells; format: cell-based; conditions: n=4; for concentration with anti-proliferative / toxic effect: WST-1 assay, HepG2 cells, 24 h; for cytotoxicity compared to 3: WST-1 assay in HepG2 cells
[2] = biological target: CysLT1R; conditions: read-out: CysLT1R Ki; cited from earlier work
[3] = biological target: T1, human full-length FXR (Homo sapiens, UniProt Q96RI1); experiment: full-length FXR-BSEP reporter gene assay; format: cell-based; conditions: for Emax: HeLa, read-out: FXR max. rel. act.; for FXR EC50: full-length FXR-BSEP reporter gene assay, HeLa cells, mean±S.E.M., n≥3, inactive = no significant activation up to 30 μM
T1 sequence (Q96RI1 1-486): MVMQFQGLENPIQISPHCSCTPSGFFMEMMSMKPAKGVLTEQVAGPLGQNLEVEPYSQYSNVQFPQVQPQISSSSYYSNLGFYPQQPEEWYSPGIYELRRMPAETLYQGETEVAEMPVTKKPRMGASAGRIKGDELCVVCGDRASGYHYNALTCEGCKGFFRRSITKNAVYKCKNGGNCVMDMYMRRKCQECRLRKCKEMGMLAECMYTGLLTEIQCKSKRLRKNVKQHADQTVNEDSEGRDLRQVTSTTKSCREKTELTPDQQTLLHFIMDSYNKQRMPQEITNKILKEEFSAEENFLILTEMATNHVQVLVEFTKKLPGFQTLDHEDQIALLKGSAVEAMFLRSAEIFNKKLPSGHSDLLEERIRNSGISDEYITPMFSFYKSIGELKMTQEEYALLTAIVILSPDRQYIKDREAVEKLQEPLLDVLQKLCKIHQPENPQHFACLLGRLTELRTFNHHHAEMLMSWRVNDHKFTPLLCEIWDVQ
T1 sequence (P19793 1-462 partner): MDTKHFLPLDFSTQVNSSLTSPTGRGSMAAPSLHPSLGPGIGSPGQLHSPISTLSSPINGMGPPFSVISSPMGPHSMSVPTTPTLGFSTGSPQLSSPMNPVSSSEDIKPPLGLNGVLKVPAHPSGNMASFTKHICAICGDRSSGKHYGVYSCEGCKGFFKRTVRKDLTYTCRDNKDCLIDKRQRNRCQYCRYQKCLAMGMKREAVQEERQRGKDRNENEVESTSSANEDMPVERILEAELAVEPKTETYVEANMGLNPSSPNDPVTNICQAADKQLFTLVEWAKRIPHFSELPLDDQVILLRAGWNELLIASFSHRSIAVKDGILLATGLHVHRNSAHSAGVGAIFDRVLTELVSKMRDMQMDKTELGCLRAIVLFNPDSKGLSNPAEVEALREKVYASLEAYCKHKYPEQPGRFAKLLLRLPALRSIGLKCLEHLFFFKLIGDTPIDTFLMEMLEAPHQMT

[4] = biological target: T2, recombinant human sEH (Homo sapiens, UniProt P34913); experiment: sEH activity assay on recombinant protein; format: biochemical
T2 sequence (P34913 1-555): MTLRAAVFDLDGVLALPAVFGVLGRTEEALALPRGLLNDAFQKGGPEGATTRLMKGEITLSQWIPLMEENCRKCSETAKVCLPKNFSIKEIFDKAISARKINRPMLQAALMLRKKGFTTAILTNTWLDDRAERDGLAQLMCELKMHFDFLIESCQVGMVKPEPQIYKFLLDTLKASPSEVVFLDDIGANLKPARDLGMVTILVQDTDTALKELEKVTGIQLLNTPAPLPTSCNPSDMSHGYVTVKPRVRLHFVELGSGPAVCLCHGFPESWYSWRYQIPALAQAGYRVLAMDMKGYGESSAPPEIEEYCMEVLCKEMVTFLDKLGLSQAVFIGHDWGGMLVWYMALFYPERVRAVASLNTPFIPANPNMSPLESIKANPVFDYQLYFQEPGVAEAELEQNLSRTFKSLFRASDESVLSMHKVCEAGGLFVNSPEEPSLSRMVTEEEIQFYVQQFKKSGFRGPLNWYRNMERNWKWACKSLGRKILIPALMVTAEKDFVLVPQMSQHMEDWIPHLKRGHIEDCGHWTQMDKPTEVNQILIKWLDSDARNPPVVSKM

[5] = biological target: T3, human CysLT1R (Homo sapiens, UniProt Q9Y271); experiment: CysLT1R antagonism assay, cell-based
T3 sequence (Q9Y271 1-337): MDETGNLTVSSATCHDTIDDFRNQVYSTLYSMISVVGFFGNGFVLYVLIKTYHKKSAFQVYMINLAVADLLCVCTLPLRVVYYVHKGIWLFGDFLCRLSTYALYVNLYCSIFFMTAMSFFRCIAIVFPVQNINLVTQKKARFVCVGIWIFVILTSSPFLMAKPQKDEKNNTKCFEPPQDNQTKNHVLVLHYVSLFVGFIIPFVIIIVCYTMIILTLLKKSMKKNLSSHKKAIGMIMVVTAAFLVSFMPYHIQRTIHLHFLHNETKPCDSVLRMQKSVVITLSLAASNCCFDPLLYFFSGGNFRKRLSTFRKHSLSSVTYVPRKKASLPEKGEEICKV

[6] = system: nuclear receptors related to FXR (PPARα, PPARγ, PPARδ, LXRα, LXRβ, RXRα, RARα, CAR); experiment: Gal4 hybrid reporter gene assays for nuclear receptors related to FXR; format: cell-based, human; conditions: HEK293T, mean, n=2
[7] = biological target: T4, sEH in HepG2 cell homogenate (Homo sapiens, UniProt P34913); experiment: Cellular sEH assay: conversion of; format: cell-based; conditions: 10 μM; HepG2 homogenates; (±)14(15)-EET-d11; n≥4
T4 sequence (P34913 1-555): T2 sequence (P34913 1-555)

[8] = system: FXR regulated genes (OSTα, SHP, CYP7A1) in HepG2 cells; format: cell-based; conditions: 10 μM, 12 h, qPCR, n=3
[9] = biological target: T5, RARα (Homo sapiens, UniProt P10276); experiment: Gal4 hybrid reporter gene assay for RARα in HEK293T cells; format: cell-based; conditions: mean, n=2
T5 sequence (P10276 183-417 limits assumed): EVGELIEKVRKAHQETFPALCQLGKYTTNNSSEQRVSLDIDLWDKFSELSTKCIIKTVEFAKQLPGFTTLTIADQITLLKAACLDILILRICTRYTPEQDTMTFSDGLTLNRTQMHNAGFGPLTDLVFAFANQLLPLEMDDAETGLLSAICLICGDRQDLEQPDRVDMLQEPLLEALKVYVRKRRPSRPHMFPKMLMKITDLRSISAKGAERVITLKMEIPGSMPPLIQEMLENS

SMILES	EC50 [3] [µM]	Emax [3] [%]	IC50 [4] [µM]	other results
COc1cc(C(=O)NS(=O)(=O)c2ccccc2C)ccc1Cc1cn(C)c2ccc(NC(=O)OC3CCCC3)cc12 [compound 3, Zafirlukast, reference compound]	–	–	–	concentration with anti-proliferative / toxic effect [1]: ≥ 1 µM; Ki [2]: 0.0003 µM
COc1cc(C(=O)O)ccc1Cc1cn(C)c2ccc(NC(=O)c3ccc(C(C)(C)C)cc3)cc12 [compound 5, 4‐((5‐(4‐(tert‐Butyl)benzamido)‐1‐methyl‐1H‐indol‐3‐yl)methyl)‐3‐methoxybenzoic acid]	0.6 ± 0.2	29	> 30	–
COc1cc(C(=O)O)ccc1Cc1cn(C)c2ccc(NC(=O)c3c(-c4c(Cl)cccc4Cl)noc3C(C)C)cc12 [compound 6, 4‐((5‐(3‐(2,6‐Dichlorophenyl)‐5‐isopropylisoxazole‐4‐carboxamido)‐1‐methyl‐1H‐indol‐3‐yl)methyl)‐3‐methoxybenzoic acid]	–	–	3.3 ± 0.6	FXR EC50 [3]: inactive
COc1cc(C(=O)O)ccc1Cc1cn(C)c2ccc(NC(=O)c3ccncc3)cc12 [compound 7, 4‐((5‐(Isonicotinamido)‐1‐methyl‐1H‐indol‐3‐yl)methyl)‐3‐methoxybenzoic acid]	0.91 ± 0.06	15	> 100	–
Cn1cc(Cc2ccc(C(=O)O)cc2)c2cc(NC(=O)c3ccc(C(C)(C)C)cc3)ccc21 [compound 8, 4‐((5‐(4‐(tert‐Butyl)benzamido)‐1‐methyl‐1H‐indol‐3‐yl)methyl)benzoic acid]	> 10	–	12 ± 1	–
COc1ccc(C(=O)O)cc1Cc1cn(C)c2ccc(NC(=O)c3ccc(C(C)(C)C)cc3)cc12 [compound 9, 3‐((5‐(4‐tert‐Butylbenzamido)‐1‐methyl‐1H‐indol‐3‐yl)methyl)‐4‐methoxybenzoic acid]	–	–	86 ± 10	FXR EC50 [3]: inactive
Cn1cc(Cc2cccc(C(=O)O)c2)c2cc(NC(=O)c3ccc(C(C)(C)C)cc3)ccc21 [compound 10, 3‐((5‐(4‐(tert‐Butyl)benzamido)‐1‐methyl‐1H‐indol‐3‐yl)methyl)benzoic acid]	1.19 ± 0.08	18	22 ± 3	–
COc1cc(C(=O)O)ccc1Cc1cn(C(C)C)c2ccc(NC(=O)c3ccc(C(C)(C)C)cc3)cc12 [compound 11, 4‐((5‐(4‐(tert‐Butyl)benzamido)‐1‐isopropyl‐1H‐indol‐3‐yl)methyl)‐3‐methoxybenzoic acid]	2.3 ± 0.1	11	> 100	–
COc1cc(C(=O)O)ccc1Cn1ccc2cc(NC(=O)c3ccc(C(C)(C)C)cc3)ccc21 [compound 12, 4‐((5‐(4‐(tert‐Butyl)benzamido)‐1H‐indol‐1‐yl)methyl)‐3‐methoxybenzoic acid]	9.2 ± 0.8	23	> 100	–
COc1cc(C(=O)O)ccc1Cn1ccc2ccc(NC(=O)c3ccc(C(C)(C)C)cc3)cc21 [compound 13, 4‐((6‐(4‐(tert‐Butyl)benzamido)‐1H‐indol‐1‐yl)methyl)‐3‐methoxybenzoic acid]	–	15	–	higher potency on FXR compared to 16 ([3]; 13 compared to 16): approx. 10 fold; improvement of EC50 value on FXR compared to 3 ([3]; compared to 3): 15 fold; IC50 [5]: ~1 µM; selectivity over nuclear receptors related to FXR [6]: selective; also recorded: high selectivity; cytotoxicity compared to 3 [1]: reduced cytotoxicity; also recorded: strongly reduced toxicity; concentration with anti-proliferative / toxic effect [1]: > 10 µM; conversion of EET to DHET (cellular sEH inhibition) [7]: blocked EET conversion to DHETs; OSTα expression [8]: induced expression; SHP expression [8]: induced expression
COc1cc(C(=O)O)ccc1Cn1cnc2ccc(NC(=O)c3ccc(C(C)(C)C)cc3)cc21 [compound 14, 4‐((6‐(4‐(tert‐Butyl)benzamido)‐1H‐benzoimidazol‐1‐yl)methyl)‐3‐methoxybenzoic acid]	5.3 ± 0.4	26	18 ± 5	decrease of activity on sEH compared to 13 ([4]; benzimidazole 14 vs indole 13): approx. 10 fold
CC(C)(C)c1ccc(C(=O)Nc2ccc3ccn(Cc4cccc(C(=O)O)c4)c3c2)cc1 [compound 15, 3‐((6‐(4‐(tert‐Butyl)benzamido)‐1H‐indol‐1‐yl)methyl)benzoic acid]	–	–	4.3 ± 0.4	FXR EC50 [3]: inactive
CC(C)(C)c1ccc(C(=O)Nc2ccc3ccn(Cc4ccc(C(=O)O)cc4)c3c2)cc1 [compound 16, 4‐((6‐(4‐(tert‐Butyl)benzamido)‐1H‐indol‐1‐yl)methyl)benzoic acid]	–	24	–	IC50 [5]: > 1 µM; RARα activation [9]: considerable RARα agonism; also recorded: marked RARα activation; selectivity over nuclear receptors related to FXR [6]: selective; also recorded: high selectivity; cytotoxicity compared to 3 [1]: reduced cytotoxicity; also recorded: strongly reduced toxicity; concentration with anti-proliferative / toxic effect [1]: > 10 µM; conversion of EET to DHET (cellular sEH inhibition) [7]: blocked EET conversion to DHETs; OSTα expression [8]: induced expression; SHP expression [8]: induced expression
